The values that follow come from US20240300932A1, “N-PHENYLIMINE DERIVATIVE AND PREPARATION METHOD AND USE THEREOF” (Guizhou University, priority 2023, published 2024).

Holding throughout (assay): Post-emergence herbicidal activity test (stem and leaf spray, pot culture)
Format in all cases: in vivo
Common to all, as to conditions: 3 weeks after spraying

One assay deals with Echinochloa crusgalli. In a few lines:
(§1)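 Foliar spray, 2–3-leaf stage, 10/5/2.5 g/mu; acetone/Tween 80 + methyl oleate 1.5 L/ha. Greenhouse 3 wk, 20–30 °C. Score: fresh-wt control, grade 5 ≥85% … grade 0 <5%.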

The subject of another assay is Abutilon theophrasti. In a few lines:
as §1

For another assay, the system named is Portulaca oleracea. A digest of the protocol: as §1
The subject of the next assay is Amaranthus retroflexus. In a few lines:
as §1

The next assay relates to Setaria viridis. A digest of the protocol:
as §1

Another assay concerns Trifoliumre pensL. In a few lines:
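Rates of 10, 5 and 2.5 g/mu were applied in a single spray-tower treatment to 2–3-leaf plants, thinned to 10 per pot. Formulation: acetone solution, Tween 80, 1.5 L/ha methyl oleate synergist. Weed response assessed after 3 further greenhouse weeks; mean of three experiments.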

Consider `O=C1C2=C(CCCC2)C(=O)N1c1cc(OCc2nc(-c3c(F)cccc3F)no2)c(Cl)cc1F` [Compound A24], for which the “Post-emergence herbicidal activity, E. crusgalli (grade)” value was 1 (Grade 1: the growth control rate is greater than or equal to 5% and less than 20%) in the assay on Echinochloa crusgalli (dosage 2.5 g/mu); 2 (Grade 2: the growth control rate is greater than or equal to 20% and less than 40%) with Echinochloa crusgalli (dosage 5 g/mu); 3 (Grade 3: the growth control rate is greater than or equal to 40% and less than 60%) in the assay on Echinochloa crusgalli (dosage 10 g/mu). The “Post-emergence herbicidal activity, A. theophrasti (grade)” value with Abutilon theophrasti (dosage 2.5 g/mu), in the assay with Abutilon theophrasti (dosage 5 g/mu) and in the assay on Abutilon theophrasti (dosage 10 g/mu) was 5 (Grade 5: the growth control rate is greater than or equal to 85%) throughout. The “Post-emergence herbicidal activity, P. oleracea (grade)” value is 4 (Grade 4: the growth control rate is greater than or equal to 60% and less than 85%) with Portulaca oleracea (dosage 2.5 g/mu); 5 (Grade 5: the growth control rate is greater than or equal to 85%) with Portulaca oleracea (dosage 5 g/mu); 5 (Grade 5: the growth control rate is greater than or equal to 85%) with Portulaca oleracea (dosage 10 g/mu). Also, the “Post-emergence herbicidal activity, A. retroflexus (grade)” value in the assay on Amaranthus retroflexus (dosage 2.5 g/mu), in the assay on Amaranthus retroflexus (dosage 5 g/mu) and in the assay with Amaranthus retroflexus (dosage 10 g/mu) was 5 (Grade 5: the growth control rate is greater than or equal to 85%) in each case. Further, the “Post-emergence herbicidal activity, S. viridis (grade)” value was 2 (Grade 2: the growth control rate is greater than or equal to 20% and less than 40%) with Setaria viridis (dosage 2.5 g/mu); 3 (Grade 3: the growth control rate is greater than or equal to 40% and less than 60%) in the assay on Setaria viridis (dosage 5 g/mu); 4 (Grade 4: the growth control rate is greater than or equal to 60% and less than 85%) in the assay with Setaria viridis (dosage 10 g/mu). Also, the “Post-emergence herbicidal activity, Trifoliumre pensL. (grade)” value is 4 (Grade 4: the growth control rate is greater than or equal to 60% and less than 85%) with Trifoliumre pensL. (dosage 2.5 g/mu); 5 (Grade 5: the growth control rate is greater than or equal to 85%) in the assay on Trifoliumre pensL. (dosage 5 g/mu); 5 (Grade 5: the growth control rate is greater than or equal to 85%) in the assay on Trifoliumre pensL. (dosage 10 g/mu).
For `O=C1C2=C(CCCC2)C(=O)N1c1cc(OCc2nc(-c3ccccc3)no2)c(Cl)cc1F` [Compound A25], the “Post-emergence herbicidal activity, E. crusgalli (grade)” value was 1 (Grade 1: the growth control rate is greater than or equal to 5% and less than 20%) with Echinochloa crusgalli (dosage 2.5 g/mu); 2 (Grade 2: the growth control rate is greater than or equal to 20% and less than 40%) in the assay on Echinochloa crusgalli (dosage 5 g/mu); 3 (Grade 3: the growth control rate is greater than or equal to 40% and less than 60%) in the assay with Echinochloa crusgalli (dosage 10 g/mu). The “Post-emergence herbicidal activity, A. theophrasti (grade)” value in the assay on Abutilon theophrasti (dosage 2.5 g/mu), in the assay on Abutilon theophrasti (dosage 5 g/mu) and in the assay on Abutilon theophrasti (dosage 10 g/mu) was 5 (Grade 5: the growth control rate is greater than or equal to 85%) throughout. For the same compound, the “Post-emergence herbicidal activity, P. oleracea (grade)” value in the assay on Portulaca oleracea (dosage 2.5 g/mu) is 4 (Grade 4: the growth control rate is greater than or equal to 60% and less than 85%); with Portulaca oleracea (dosage 5 g/mu), 5 (Grade 5: the growth control rate is greater than or equal to 85%); in the assay on Portulaca oleracea (dosage 10 g/mu), 5 (Grade 5: the growth control rate is greater than or equal to 85%). In addition, the “Post-emergence herbicidal activity, A. retroflexus (grade)” value with Amaranthus retroflexus (dosage 2.5 g/mu), in the assay on Amaranthus retroflexus (dosage 5 g/mu) and in the assay with Amaranthus retroflexus (dosage 10 g/mu) was 5 (Grade 5: the growth control rate is greater than or equal to 85%) throughout. In addition, the “Post-emergence herbicidal activity, S. viridis (grade)” value with Setaria viridis (dosage 2.5 g/mu) was 2 (Grade 2: the growth control rate is greater than or equal to 20% and less than 40%); in the assay with Setaria viridis (dosage 5 g/mu), 3 (Grade 3: the growth control rate is greater than or equal to 40% and less than 60%); in the assay with Setaria viridis (dosage 10 g/mu), 4 (Grade 4: the growth control rate is greater than or equal to 60% and less than 85%). Moreover, the “Post-emergence herbicidal activity, Trifoliumre pensL. (grade)” value in the assay with Trifoliumre pensL. (dosage 2.5 g/mu) was 4 (Grade 4: the growth control rate is greater than or equal to 60% and less than 85%); in the assay on Trifoliumre pensL. (dosage 5 g/mu) it was 5 (Grade 5: the growth control rate is greater than or equal to 85%); in the assay on Trifoliumre pensL. (dosage 10 g/mu) it was 5 (Grade 5: the growth control rate is greater than or equal to 85%).
With `CC(C)(C)c1ccc(-c2noc(COc3cc(N4C(=O)C5=C(CCCC5)C4=O)c(F)cc3Cl)n2)cc1` [Compound A26], the “Post-emergence herbicidal activity, E. crusgalli (grade)” value in the assay with Echinochloa crusgalli (dosage 2.5 g/mu) was 1 (Grade 1: the growth control rate is greater than or equal to 5% and less than 20%); with Echinochloa crusgalli (dosage 5 g/mu), 2 (Grade 2: the growth control rate is greater than or equal to 20% and less than 40%); in the assay with Echinochloa crusgalli (dosage 10 g/mu), 3 (Grade 3: the growth control rate is greater than or equal to 40% and less than 60%). Further, the “Post-emergence herbicidal activity, A. theophrasti (grade)” value in the assay on Abutilon theophrasti (dosage 2.5 g/mu), in the assay on Abutilon theophrasti (dosage 5 g/mu) and in the assay with Abutilon theophrasti (dosage 10 g/mu) was 5 (Grade 5: the growth control rate is greater than or equal to 85%) each time. Besides, the “Post-emergence herbicidal activity, P. oleracea (grade)” value in the assay on Portulaca oleracea (dosage 2.5 g/mu) is 4 (Grade 4: the growth control rate is greater than or equal to 60% and less than 85%); in the assay with Portulaca oleracea (dosage 5 g/mu), 5 (Grade 5: the growth control rate is greater than or equal to 85%); with Portulaca oleracea (dosage 10 g/mu) it was 5 (Grade 5: the growth control rate is greater than or equal to 85%). The “Post-emergence herbicidal activity, A. retroflexus (grade)” value with Amaranthus retroflexus (dosage 2.5 g/mu), in the assay on Amaranthus retroflexus (dosage 5 g/mu) and with Amaranthus retroflexus (dosage 10 g/mu) was 5 (Grade 5: the growth control rate is greater than or equal to 85%) throughout. Besides, the “Post-emergence herbicidal activity, S. viridis (grade)” value was 2 (Grade 2: the growth control rate is greater than or equal to 20% and less than 40%) with Setaria viridis (dosage 2.5 g/mu); 3 (Grade 3: the growth control rate is greater than or equal to 40% and less than 60%) in the assay on Setaria viridis (dosage 5 g/mu); 4 (Grade 4: the growth control rate is greater than or equal to 60% and less than 85%) in the assay on Setaria viridis (dosage 10 g/mu). The “Post-emergence herbicidal activity, Trifoliumre pensL. (grade)” value in the assay with Trifoliumre pensL. (dosage 2.5 g/mu) is 4 (Grade 4: the growth control rate is greater than or equal to 60% and less than 85%); in the assay with Trifoliumre pensL. (dosage 5 g/mu), 5 (Grade 5: the growth control rate is greater than or equal to 85%); in the assay with Trifoliumre pensL. (dosage 10 g/mu) it was 5 (Grade 5: the growth control rate is greater than or equal to 85%).
As for `O=C1C2=C(CCCC2)C(=O)N1c1cc(OCc2nc(-c3ccc(I)cc3)no2)c(Cl)cc1F` [Compound A27], the “Post-emergence herbicidal activity, E. crusgalli (grade)” value was 1 (Grade 1: the growth control rate is greater than or equal to 5% and less than 20%) in the assay with Echinochloa crusgalli (dosage 2.5 g/mu); 2 (Grade 2: the growth control rate is greater than or equal to 20% and less than 40%) in the assay on Echinochloa crusgalli (dosage 5 g/mu); 3 (Grade 3: the growth control rate is greater than or equal to 40% and less than 60%) in the assay with Echinochloa crusgalli (dosage 10 g/mu). Moreover, the “Post-emergence herbicidal activity, A. theophrasti (grade)” value in the assay with Abutilon theophrasti (dosage 2.5 g/mu), in the assay with Abutilon theophrasti (dosage 5 g/mu) and in the assay on Abutilon theophrasti (dosage 10 g/mu) was 5 (Grade 5: the growth control rate is greater than or equal to 85%) throughout. Besides, the “Post-emergence herbicidal activity, P. oleracea (grade)” value in the assay with Portulaca oleracea (dosage 2.5 g/mu), with Portulaca oleracea (dosage 5 g/mu) and in the assay with Portulaca oleracea (dosage 10 g/mu) was 5 (Grade 5: the growth control rate is greater than or equal to 85%) each time. Besides, the “Post-emergence herbicidal activity, A. retroflexus (grade)” value in the assay with Amaranthus retroflexus (dosage 2.5 g/mu), with Amaranthus retroflexus (dosage 5 g/mu) and with Amaranthus retroflexus (dosage 10 g/mu) was 5 (Grade 5: the growth control rate is greater than or equal to 85%) in each case. Besides, the “Post-emergence herbicidal activity, S. viridis (grade)” value in the assay on Setaria viridis (dosage 2.5 g/mu) is 2 (Grade 2: the growth control rate is greater than or equal to 20% and less than 40%); with Setaria viridis (dosage 5 g/mu) it was 3 (Grade 3: the growth control rate is greater than or equal to 40% and less than 60%); in the assay on Setaria viridis (dosage 10 g/mu), 4 (Grade 4: the growth control rate is greater than or equal to 60% and less than 85%). Also, the “Post-emergence herbicidal activity, Trifoliumre pensL. (grade)” value with Trifoliumre pensL. (dosage 2.5 g/mu), with Trifoliumre pensL. (dosage 5 g/mu) and in the assay on Trifoliumre pensL. (dosage 10 g/mu) was 5 (Grade 5: the growth control rate is greater than or equal to 85%) each time.
